For test [1], the target named is T1, recombinant METTL3/METTL14 complex (Homo sapiens, UniProt Q86U44).
T1 construct: purchased Active Motif 311970; host or cells: Sf9 cells
The experiment in a line: METTL3/14 Scintillation Proximity Assay (SPA), RNA methyltransferase activity. The format is biochemical. The settings on record: 5.31 nM METTL3/14 complex, 250 nM RNA substrate, 1 μM 3H-SAM, 90 min; for compounds marked * best of the two separated forms.

Another test has as its system Caov-3 cells. Kind of test: Caov-3 cellular viability assay (ATP-Lite, 72 h). In kind it is cell-based. The following applies: Homo sapiens, ATP-Lite luminescence, % viability relative to DMSO. The gist of the method:
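IC50 values come from concentration-response fits of luminescent ATP content (ATP-Lite One Step), normalised as % viability versus DMSO. Compound exposure was 72 h at 37 °C in RPMI-1640/10% FBS with 0.1% final DMSO. Wells held 10000 cells each.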

Another test concerns Kasumi-1 cells. The experiment in a line: Kasumi-1 cellular viability assay (ATP-Lite, 72 h). The format is cell-based. The settings on record: Homo sapiens, ATP-Lite luminescence, % viability relative to DMSO. The gist of the method: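 Viability was read by ATP-Lite One Step luminescence after 72 h compound treatment at 37 °C/5% CO2, normalised to DMSO control, with IC50 fitted from concentration-response. Cells were Kasumi-1 (AML FAB M2) at 15000 per well in RPMI-1640/10% FBS, 0.1% DMSO final.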

As usually defined, the pIC50 is the negative decadic logarithm of the IC50, by convention in mol/L.

pIC50: −log10 of the molar value. Some results are limits rather than exact numbers.

T1 sequence (Q86U44 whole entry): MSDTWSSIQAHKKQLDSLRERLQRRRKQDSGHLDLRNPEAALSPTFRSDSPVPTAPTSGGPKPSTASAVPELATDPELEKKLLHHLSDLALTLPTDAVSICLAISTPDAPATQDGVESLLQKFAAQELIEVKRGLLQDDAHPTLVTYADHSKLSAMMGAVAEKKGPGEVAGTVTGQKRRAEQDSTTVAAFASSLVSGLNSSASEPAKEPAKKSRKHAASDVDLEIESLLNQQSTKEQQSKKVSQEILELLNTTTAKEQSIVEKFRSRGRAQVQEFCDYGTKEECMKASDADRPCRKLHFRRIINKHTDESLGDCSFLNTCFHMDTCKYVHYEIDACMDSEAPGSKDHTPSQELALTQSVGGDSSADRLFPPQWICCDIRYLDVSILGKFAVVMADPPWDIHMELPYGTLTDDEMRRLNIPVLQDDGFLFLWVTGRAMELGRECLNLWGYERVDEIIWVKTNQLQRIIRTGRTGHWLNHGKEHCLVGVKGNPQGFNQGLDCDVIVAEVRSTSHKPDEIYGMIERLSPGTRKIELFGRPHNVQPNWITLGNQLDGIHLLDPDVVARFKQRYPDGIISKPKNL
T1 sequence (Q9HCE5 whole entry partner): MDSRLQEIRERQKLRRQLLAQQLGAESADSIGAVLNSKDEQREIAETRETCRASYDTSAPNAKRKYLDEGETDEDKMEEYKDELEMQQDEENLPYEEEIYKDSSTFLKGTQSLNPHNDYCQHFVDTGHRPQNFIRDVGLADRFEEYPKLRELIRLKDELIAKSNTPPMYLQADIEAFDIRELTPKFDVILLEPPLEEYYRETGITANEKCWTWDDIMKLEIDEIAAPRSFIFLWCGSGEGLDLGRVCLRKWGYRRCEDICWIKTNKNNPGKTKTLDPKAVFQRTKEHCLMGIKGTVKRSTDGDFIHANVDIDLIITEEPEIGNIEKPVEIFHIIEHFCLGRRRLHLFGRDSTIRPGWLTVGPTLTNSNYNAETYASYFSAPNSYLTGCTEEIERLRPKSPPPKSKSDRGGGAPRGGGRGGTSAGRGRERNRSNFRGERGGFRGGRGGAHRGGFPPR

For `COc1cncc(-c2cn(Cc3ccc(N4CCC[C@@H](NCC5CCC5)C4)nn3)nn2)c1` [Compound 012, (R)-N-(cyclobutylmethyl)-1-(6-((4-(5-methoxypyridin-3-yl)-1H-1,2,3-triazol-1-yl)methyl)pyridazin-3-yl)piperidin-3-amine], the negative-log IC50 (pIC50) in test [1] was ≥ 7.30; in the test with Caov-3 cells, 5.30 to 6.30; in the test with Kasumi-1 cells, 5.30 to 6.30.
Take `COc1cncc(-c2ncc(C(C)c3ccc(N4CCC[C@@H](NCC5CCC5)C4)cn3)s2)c1` (single isomer, unassigned) [Compound 181]: the pIC50 in test [1] is ≥ 7.30; in the test with Caov-3 cells, 5.30 to 6.30; in the test on Kasumi-1 cells, 5.30 to 6.30.
Turning to `CC(c1ccc(N2CCC[C@@H](NCC3CC3)C2)cn1)n1cc(-c2cncc(N3CCCC3)n2)nn1` (single isomer, unassigned) [Compound 259], the values for the negative-log IC50 (pIC50) (in test [1]; in the test on Caov-3 cells; in the test on Kasumi-1 cells) were ≥ 7.30, ≥ 6.30 and ≥ 6.30, respectively.
Turning to `CC(c1ccc(N2CCC[C@@H](NCC3CC3)C2)nn1)n1cnc(-c2cncc(N3CCCC3)n2)c1` (single isomer, unassigned) [Compound 340], the negative logarithm of the IC50 (pIC50) in test [1] is ≥ 7.30; with Caov-3 cells it was ≥ 6.30; with Kasumi-1 cells, ≥ 6.30.
As to `CC(c1ccc(N2CCC[C@@H](NCC3CCC3)C2)cn1)n1cc(-c2cncc(N3CCCC3)n2)nn1` (stereo partly drawn) [Compound 280, (3R)—N-(cyclobutylmethyl)-1-(6-(1-(4-(6-(pyrrolidin-1-yl)pyrazin-2-yl)-1H-1,2,3-triazol-1-yl)ethyl)pyridin-3-yl)piperidin-3-amine], the pIC50 was ≥ 7.30 in test [1], ≥ 6.30 with Caov-3 cells and ≥ 6.30 in the test on Kasumi-1 cells.
In the case of `COc1cc(-c2cn(Cc3ccc(N4CCCC(NC5CC56CCC6)C4)nn3)nn2)c2cn[nH]c2c1` (stereo not drawn) [Compound 025, 1-(6-((4-(6-methoxy-1H-indazol-4-yl)-1H-1,2,3-triazol-1-yl)methyl)pyridazin-3-yl)-N-(spiro[2.3]hexan-1-yl)piperidin-3-amine], the pIC50 is ≥ 7.30 in test [1], ≥ 6.30 with Caov-3 cells and 5.30 to 6.30 with Kasumi-1 cells.
For `CC(c1ccc(N2CCC[C@@H](NCC3CCC3)C2)cn1)n1cc(-c2cncc(C3CC3)n2)nn1` (stereo partly drawn) [Compound 292, (3R)—N-(cyclobutylmethyl)-1-(6-(1-(4-(6-cyclopropylpyrazin-2-yl)-1H-1,2,3-triazol-1-yl)ethyl)pyridin-3-yl)piperidin-3-amine] the same measures were ≥ 7.30, 5.30 to 6.30 and 5.30 to 6.30.
Consider `COc1cncc(-c2cn(Cc3ccc(N4CCC[C@@H](NCC5CCC5)C4)cc3)cn2)c1` [Compound 144, (R)-N-(cyclobutylmethyl)-1-(4-((4-(5-methoxypyridin-3-yl)-1H-imidazol-1-yl)methyl)phenyl)piperidin-3-amine], for which the results for the pIC50 (in test [1]; in the test with Caov-3 cells; in the test with Kasumi-1 cells) were ≥ 7.30, 5.30 to 6.30 and 5.30 to 6.30, respectively.
With `COc1cncc(-c2cn(C(C)(C)c3ccc(N4CCC[C@@H](NCC5CCC5)C4)nn3)nn2)c1` [Compound 082, (R)-N-(cyclobutylmethyl)-1-(6-(2-(4-(5-methoxypyridin-3-yl)-1H-1,2,3-triazol-1-yl)propan-2-yl)pyridazin-3-yl)piperidin-3-amine], the negative-log IC50 (pIC50) is ≥ 7.30 in test [1], 5.30 to 6.30 with Caov-3 cells and 5.30 to 6.30 in the test on Kasumi-1 cells.
As for `c1ncc(-c2cn(C3(c4ccc(N5CCC[C@@H](NCC6CC6)C5)cn4)COC3)nn2)cc1CC1CC1` [Compound 346, (R)-N-(cyclopropylmethyl)-1-(6-(3-(4-(5-(cyclopropylmethyl)pyridin-3-yl)-1H-1,2,3-triazol-1-yl)oxetan-3-yl)pyridin-3-yl)piperdin-3-amine], the pIC50 was ≥ 7.30 in test [1], ≥ 6.30 in the test with Caov-3 cells and ≥ 6.30 with Kasumi-1 cells.

(Values after patent publication US20250002475A1 (EPICS THERAPEUTICS, priority 2023, published 2025).)
